In patent publication US20230310432A1 (JULIUS-MAXIMILIANS-UNIVERSITÄT WÜRZBURG, priority 2017, published 2023):
Where two headings read alike, the source gives them in different places.

Tests used:
[1] = tested on: NFAT/GFP reporter in CD4+ T cells co-expressing the CD19 CAR with 4-1BB costimulatory domain; assay: NFAT/GFP reporter assay during sequential stimulation; assay type: cell-based, human
[2] = tested on: NFAT inducible GFP reporter gene in CD19CAR/41BB T cells; assay: NFAT-inducible GFP reporter expression in CAR-T cells in vivo; parameters: species or system NSG mice
From the text: The inventors prepared CD8^+ and CD4^+ CD19CAR/41BB T cells, which the inventors transduced to co-express an NFAT inducible GFP reporter gene.

[3] = tested on: CD8+ T cells expressing a CD19 CAR with 4-1BB costimulation; assay: Bioluminescence-based cytotoxicity assay, K562/CD19 target cells; assay type: cell-based, human; settings: dasatinib 100 nM added 1 hour after the start of the co-culture; t=10 hours; >90% without dasatinib
[4] = tested on: NFAT-inducible GFP reporter gene in CD8+ CD19 CAR/4-1BB T cells; assay: NFAT-inducible GFP reporter assay; assay type: cell-based, human; settings: 100 nM dasatinib; stimulation with Raji, 24 h; 1211 without dasatinib, 117 unstimulated
Protocol: T cells (co-)expressing the NFAT inducible GFPwt reporter gene were co-cultured in the presence of 10 U IL-2 with irradiated (80 Gy) Raji or K562 tumor cells at an E:T ratio of 5:1 or without target cells. […] After 24 hours of co-culture, cells were labeled with anti-CD3 mAb, and analyzed by flow cytometry to assess GFP expression in T cells.
The inventors prepared CD8^+ CD19 CAR/4-1BB T cells, that the inventors transduced to co-express an NFAT-inducible GFP reporter gene.

[5] = tested on: CD8+ T cells expressing a CD19 CAR with CD28 costimulatory domain; assay: Cytokine production and secretion (IFN-γ, IL-2 ELISA), co-culture with K562/CD19; assay type: cell-based, human; settings: dasatinib ≥50 nM; 20 h
Protocol: (§1) Cytokine secretion: 5×10^4 T-cells were plated in duplicate or triplicate wells with target cells at an E:T ratio of 4:1 (K562/ROR1, K562/CD19, RCH-ACV), and IFN-γ and IL-2 were measured by ELISA, or cytokine panels were measured by multiplex cytokine immunoassay (Luminex) in supernatant removed after 20-h incubation. Specific cytokine production was calculated by subtracting the amount of cytokines released by unstimulated CAR-T cells from the amount of cytokines released after antigen-specific stimulation. The remaining cytokine secretion in % as shown in the diagrams is normalized to CAR-T cells in the absence of dasatinib-treatment (100%).
(§2) CAR-T cells were co-cultured with K562 that the inventors had transduced with either CD19 (for testing CD19 CAR-T cells) or ROR1 (for testing ROR1 CAR-T cells). Dasatinib was added to the assay medium at the beginning of the co-culture assay. ELISA was performed to detect IFN-γ and IL-2 in supernatant removed from the co-culture.

[6] = cited from earlier work
[7] = tested on: CD8+ T cells expressing a ROR1 CAR with 4-1BB costimulatory domain; assay: Cytokine production and secretion (IFN-γ, IL-2 ELISA), co-culture with K562/ROR1; assay type: cell-based, human; settings: dasatinib ≥50 nM; 20 h
Protocol: as §1, §2

[8] = tested on: CD8+ T cells expressing a CD19 CAR with 4-1BB costimulation; assay: Bioluminescence-based cytotoxicity assay, K562/CD19 target cells; assay type: cell-based, human
Protocol: Cytotoxicity: Target cells were stably transduced with ffluc_GFP and incubated in triplicate wells at 1×10^4 cells/well with effector T cells at an effector to target (E:T) ratio of 5:1. D-luciferin substrate (Biosynth, Staad, Switzerland) was added to the co-culture to a final concentration of 0.15 mg/ml and the decrease in luminescence signal in wells that contained target cells and T-cells was measured using a luminometer (Tecan, Mannedorf, Switzerland). Specific lysis was calculated using the standard formula.
The inventors prepared CD8+ CAR-T cell lines from n=3 healthy donors. In each of the T-cell lines, the inventors enriched CAR-expressing T cells to >90% purity using the EGFRt-transduction marker. The inventors analyzed cytolytic activity of CD8^+ CAR-T cells in a bioluminescence-based cytotoxicity assay using K562 that the inventors had transduced with either CD19 (for testing CD19 CAR-T cells) or ROR1 (for testing ROR1 CAR-T cells) as target cells. Dasatinib was added to the assay medium at the beginning of the assay.
The inventors prepared CD8^+ CAR-T cell lines from n=3 healthy donors. In each of the T-cell lines, the inventors enriched CAR-expressing T cells to >90% purity using the EGFRt-transduction marker. The inventors analyzed cytolytic activity of CD8^+ CAR-T cells in a bioluminescence-based cytotoxicity assay using K562 target cells that the inventors had transduced with CD19.
The CAR-T cell cytolytic activity was analyzed at 1-hour intervals for 10 hours.
The inventors analyzed cytolytic activity of CD8+ CAR-T cells in a bioluminescence-based cytotoxicity assay.
The inventors prepared CD8^+ CD19 CAR-T cell lines with a 4-1BB costimulatory domain from one healthy donor. In the T-cell line, the inventors enriched CAR expressing T cells to >90% purity using the EGFRt-transduction marker. The inventors analyzed cytolytic activity of CD8^+ CAR-T cells in a 4-hour bioluminescence-based cytotoxicity assay using K562 that the inventors had transduced with CD19 as target cells to assess the influence of a panel of Src-kinase inhibitors on the cytolytic function of CAR-T cells. Src-kinase inhibitors were added to the assay medium at the beginning of the assay over a 4-log concentration range.

[9] = d+3, dasatinib not in effect any more

Cc1nc(Nc2ncc(C(=O)Nc3c(C)cccc3Cl)s2)cc(N2CCN(CCO)CC2)n1 [dasatinib]
GFP MFI ([1]; day 1, dasatinib present from the beginning): 317 | GFP MFI ([1]; day 3, treated at 1 hour after assay set up, 2499 in untreated): 326 | GFP MFI ([1]; day 3, treated from the beginning, 2499 in untreated): 108 | mean fluorescence intensity (MFI) for GFP in bone marrow CAR-T cells ([2]; d+1, CAR/treated, 10687 CAR/untreated): 6967 | reduction of GFP MFI, bone marrow CAR-T cells ([2]; d+1, treated vs untreated): 35% | reduction of GFP reporter gene expression, spleen CAR-T cells ([2]; d+1, treated vs untreated): 36% | difference in GFP between previously treated and untreated CAR-T cells, bone marrow [2, 9]: 10% | difference in GFP between previously treated and untreated CAR-T cells, spleen [2, 9]: 23% | specific lysis [3]: 34% | mean fluorescence intensity (MFI) of GFP expression [4]: 129 | residual specific IFN-γ production compared to non-dasatinib treated CAR-T cells [5]: less than 4.5% | dasatinib concentration in mouse serum ([6]; 5 mg/kg i.p., after each injection, based on known pharmacokinetics [23]): > 50 nM | window after each injection with dasatinib at that serum concentration ([6]; 5 mg/kg i.p., based on known pharmacokinetics [23]): ~6 h | total window with dasatinib present in mouse serum at that concentration ([6]; 10 mg/kg i.p. every 6 hours, 6 doses, 3 hours prior to 33 hours after T-cell transfer): 36 h | dasatinib concentration in mouse serum ([6]; 10 mg/kg i.p. every 6 hours, 6 doses, based on known pharmacokinetics [23]): at least 100 nM | residual IFN-γ production compared to non-dasatinib treated CAR-T cells [7]: less than 3% | residual IL-2 production compared to non-dasatinib treated CAR-T cells [7]: less than 8.5% | specific lysis ([8]; 0.1 μM dasatinib at the beginning of the assay, t=10 h): < 1% | specific lysis of target cells ([8]; dasatinib 25 nM, t=6 h, 53% by non-dasatinib treated): 26% | specific lysis of target cells ([8]; dasatinib 25 nM, t=12 h, 93% by non-dasatinib treated): 73% | specific lysis of target cells ([8]; dasatinib 100 nM for 2 hours, then removed, at 10 hours): > 95% | specific lysis of target cells ([8]; dasatinib 100 nM for 2 hours, then removed, at +4 hours): 77% | specific lysis of target cells ([8]; dasatinib ≤12.5 nM, t=12 h, 93% by non-dasatinib treated CAR-T cells): > 88% | specific lysis of target cells ([8]; dasatinib ≥50 nM, t=12 h, 93% by non-dasatinib treated): less than 12% | specific lysis of target cells ([8]; dasatinib ≥50 nM, up to t=6 h): less than 7% | specific lysis of target cells ([8]; inhibitor 10 nM, 4-hour assay, 82% by untreated CAR-T cells): 16.1%
